Data on five molecules can be found in US8053416B2, “Isolation and structure of turbostatins 1-4” (Arizona Board of Regents, a body corporate of the State of …, priority 2005, dated 2011).

The structures appear in SMILES notation. Where only a bound is given, the exact number is not on record here.

Test [1] relates to NCI-H460 (lung large cell). Description: NCI sulforhodamine B human cancer cell growth inhibition, NCI-H460. The settings on record: in DMSO. The test is classed as cell-based. Here is the method: (§1) Cancer Cell Line Methods. The National Cancer Institute's standard sulforhodamine B assay was used to assess inhibition of human cancer cell growth. The murine P388 lymphocytic leukemia cell line results were obtained using 10% horse serum/Fisher medium with incubation for 24 hours.

The subject of test [2] is KML20L2 (colon adenocarcinoma). Description: NCI sulforhodamine B human cancer cell growth inhibition, KML20L2. The test is classed as cell-based. The settings on record: in DMSO. Here is the method: as §1
Test [3] concerns MCF-7 (breast adenocarcinoma). Description: NCI sulforhodamine B human cancer cell growth inhibition, MCF-7. The class given is cell-based. The settings on record: in DMSO. Here is the method:
as §1

The subject of the next test is SF268 (CNS glioblastoma). Description: NCI sulforhodamine B human cancer cell growth inhibition, SF268. The test is classed as cell-based. The following applies: in DMSO. Here is the method: as §1
Test [4] has as its system DU-145 (prostate carcinoma). Description: NCI sulforhodamine B human cancer cell growth inhibition, DU-145. The class given is cell-based. The settings on record: in DMSO. The procedure: as §1
Test [5] concerns BXPC-3 (pancreas adenocarcinoma). Kind of test: NCI sulforhodamine B human cancer cell growth inhibition, BXPC-3. The class given is cell-based. The following applies: in DMSO. The procedure:
as §1

The test system of test [6] is murine P388 lymphocytic leukemia cell line. Kind of test: Murine P388 lymphocytic leukemia cell line growth inhibition. The test is classed as cell-based. The following applies: in DMSO. Here is the method:
as §1

The test system of test [7] is murine P388 lymphocytic leukemia (in vivo). The settings on record: dose levels from 4.0 to 800 mg/kg, 123 = 23% increase in median survival time; cited from earlier work.
Test [8] relates to in vivo L-1210 lymphoid leukemia. The settings on record: cited from earlier work.
For test [9], the system named is human epidermoid carcinoma of the nasopharynx (KB) cell line. The settings on record: cited from earlier work.

`CCCCCCCCCCC/C=C/[C@@H](O)[C@H](CO[C@@H]1O[C@H](CO)[C@H](O)[C@H](O)[C@H]1O)NC(=O)CCCCCCCCCCCCCCCCC` [Compound 4, 1-O-β-D-galactopyranosyl-2S-octadecanoylamino-3R-hydroxy-4E-hexadecene]: the “Cell line inhibition value GI50” value was 0.49 µg/mL in test [1]; 0.41 µg/mL in test [2]; 0.44 µg/mL in test [3]; 1.5 µg/mL in the test on SF268 (CNS glioblastoma); 2.6 µg/mL in test [4]; 0.93 µg/mL in test [5]. In addition, the “Cell line inhibition value GI50” value in test [6] was found to be 0.29 µg/mL.
In the case of `CCCCCCCCCCC/C=C/[C@@H](O)[C@H](CO[C@@H]1O[C@H](CO)[C@H](O)[C@H](O)[C@H]1O)NC(=O)CCCCCCCCCCCCCCC` [Compound 3, 1-O-β-D-galactopyranosyl-2S-hexadecanoylamino-3R-hydroxy-4E-hexadecene], the “Cell line inhibition value GI50” value in [1] stood at 0.55 µg/mL; in test [2] it was 0.48 µg/mL; in test [3], 0.48 µg/mL; in the test with SF268 (CNS glioblastoma), 1.9 µg/mL; in test [4], 2.6 µg/mL; in test [5] it was 1.6 µg/mL. In addition, the “Cell line inhibition value GI50” value in [6] turned out to be 0.25 µg/mL.
For `NCCS(=O)(=O)O` [taurine], the T/C in test [7] is at most 123. The “Activity against in vivo L-1210 lymphoid leukemia” value in test [8] is “inactive”. Also, the “Activity against KB cell line” value in test [9] is “inactive”.
`CCCCCCCCCCC/C=C/[C@@H](O)[C@H](CO[C@@H]1O[C@H](CO)[C@@H](O)[C@H](O)[C@H]1O)NC(=O)CCCCCCCCCCCCCCCCC` [Compound 2, 1-O-β-D-glucopyranosyl-2S-octadecanoylamino-3R-hydroxy-4E-hexadecene]: the “Cell line inhibition value GI50” value in [1] came to 0.53 µg/mL; in [2] it was 0.35 µg/mL; in [3], 0.39 µg/mL; in the test with SF268 (CNS glioblastoma), 1.9 µg/mL; in [4], 1.7 µg/mL; in test [5], 1.0 µg/mL. Further, the “Cell line inhibition value GI50” value in test [6] stood at 0.15 µg/mL.
In the case of `CCCCCCCCCCC/C=C/[C@@H](O)[C@H](CO[C@@H]1O[C@H](CO)[C@@H](O)[C@H](O)[C@H]1O)NC(=O)CCCCCCCCCCCCCCC` [Compound 1, 1-O-β-D-glucopyranosyl-2S-hexadecanoylamino-3R-hydroxy-4E-hexadecene], the “Cell line inhibition value GI50” value in test [1] was 0.34 µg/mL; in test [2] it was 0.35 µg/mL; in test [3], 0.44 µg/mL; with SF268 (CNS glioblastoma), 0.98 µg/mL; in test [4] it was 1.6 µg/mL; in test [5], 0.71 µg/mL. In test [6], the “Cell line inhibition value GI50” value turned out to be 0.27 µg/mL.
